Earlier results on 3 molecules are cited in patent publication US8440655B2, “Combination therapy for the treatment of diabetes” (Theracos, Inc., priority 2010, dated 2013).

For one series, the system named is cortical receptors. Conditions: (+) form compared to (−) isomer.
For the next series, the system named is cardiac receptors. As to conditions: (+) form compared to (−) form.
The next series relates to muscarinic receptor. As to conditions: result in words.
For series [1] the following is noted: at 90 degrees.

Molecules are shown by their SMILES.

In the case of `Cc1scc2c1N(C(=O)CN1CCN(C)CC1)c1ccccc1NC2=O` [(+) form of telenzepine], the “factor by which the (+) form is more effective than the (−) isomer” value in the series on cortical receptors is given as 400. Besides, the “factor by which the (+) form is more potent than the (−) form” value in the series on cardiac receptors is reported as 50. Moreover, in the series on muscarinic receptor, the antimuscarinic activity result is recorded as “potent antimuscarinic activity”.

In the case of `Cc1scc2c1N(C(=O)CN1CCN(C)CC1)c1ccccc1NC2=O` [(−) form], the antimuscarinic activity entry in the series with muscarinic receptor is “considerably less active”.

Consider `Cc1scc2c1N(C(=O)CN1CCN(C)CC1)c1ccccc1NC2=O` [Telenzepine, 4,9-Dihydro-3-methyl-4-[(4-methyl-1-piperazinyl)acetyl]-10H-thieno[3,4-b][1,5]benzodiazepin-10-one], for which the “half time of interconversion of the two forms” value in series [1] was “approximately 200 hours”.
